Earlier results in US11547680B2, “Benzalkonium-embedded mesostructured silica compositions and uses of same” (RUTGERS, THE STATE UNIVERSITY OF NEW JERSEY, priority 2018, dated 2023).

Details: aqueous solution

## benzalkonium chloride [BAC]
  critical micelle concentration (CMC): ca. 0.5 mM
